According to publication PMC5617977, “Antibacterial Activity and Toxicity of Analogs of Scorpion Venom IsCT Peptides” (Antibiotics, 2017):
Entries after “also recorded” stand apart in the source; their conditions may differ. Where no end group is shown, it is not given here.

What was measured:
human erythrocytes = experiment: Hemolytic activity; format: cell-based; conditions: 1% human erythrocytes in 1× PBS, peptide 1, 10, 50, 100 μg/mL, 37 °C, 1 h, hemoglobin at 416 nm, 100% control 1% TritonX-100; average of two independent experiments
Experimental: Hemolytic activity was carried out as described previously. Briefly, serial concentrations of peptides (final concentrations of 0 as blank, 1, 10, 50, and 100 μg/mL) were added to 1% human erythrocytes in 1× PBS buffer. The cell suspensions were incubated at 37 °C for 1 h and then centrifuged to remove unlysed erythrocytes. Released hemoglobin was determined spectrophotometrically at 416 nm. The control for 100% release of hemoglobin was a sample of 1% erythrocyte incubated in PBS with 1% TritonX-100. Results are the average of two independent experiments.

[1] = test system: Bacillus cereus (ATCC# 11778); experiment: Antibacterial activity, standard broth (liquid) dilution; format: cell-based; conditions: for MIC B. cereus: Luria Bertani broth, peptide 1, 10, 50, 100 μg/mL, 37 °C, 24 h, absorbance 600 nm, MIC interpolated at 0% bacterial growth, average of three independent experiments
Experimental: (§1) Antimicrobial activities were determined by standard broth dilution against two Gram-positive and three Gram-negative bacteria. In general, the MICs seem to be higher than the concentrations tested in our experiments (Table 3). Only Staphylococcus aureus and Escherichia coli seem to be inhibited with both natural peptides but also by the leucine substituted analogue, IsCT1L1, at concentrations lower than 25 μg/mL. […] Curiously, some peptides—such as IsCT1V1, IsCT1E7, or even natural IsCT1—when tested with Bacillus cereus show significant bacteria growth inhibition at concentrations lower than 10 μg/mL.
(§2) Two Gram-positive bacteria: Staphylococcus aureus (ATCC# 29213) and Bacillus cereus (ATCC# 11778); and three Gram-negative bacteria: Salmonella typhimurium (ATCC# 14028), Enterobacter aerogenes (ATCC# 13048), and Escherichia coli (ATCC# 25922) were tested.
(§3) Activity was determined by the standard liquid dilution method described previously. All results are the average of three independent experiments. Briefly, cells were grown overnight at 37 °C in Luria Bertani broth and diluted in the same medium for assays. Bacteria were added to serial dilutions of the peptides (final concentrations of 1, 10, 50, and 100 μg/mL) and incubated at 37 °C for 24 h. Cell growth was measured by UV absorbance at 600 nm. For each bacterium, a solution containing no peptide (concentration 0 μg/mL) was processed under identical conditions and used as control for 100% bacterial growth. MICs were obtained from interpolation of 0% bacterial growth from plots. Results are the average of three independent experiments.

[2] = test system: Staphylococcus aureus (ATCC# 29213); experiment: as above; format: cell-based; conditions: Luria Bertani broth, peptide 1, 10, 50, 100 μg/mL, 37 °C, 24 h, absorbance 600 nm; MIC interpolated at 0% bacterial growth; average of three independent experiments
Experimental: as §1, §2, §3

[3] = test system: Escherichia coli (ATCC# 25922); experiment: as above; format: cell-based; conditions: Luria Bertani broth, peptide 1, 10, 50, 100 μg/mL, 37 °C, 24 h, absorbance 600 nm; MIC interpolated at 0% bacterial growth; average of three independent experiments
Experimental: as §1, §2, §3

[4] = test system: Salmonella typhimurium (ATCC# 14028); experiment: as above; format: cell-based; conditions: Luria Bertani broth, peptide 1, 10, 50, 100 μg/mL, 37 °C, 24 h, absorbance 600 nm; MIC interpolated at 0% bacterial growth; average of three independent experiments
Experimental: as §1, §2, §3

[5] = test system: Enterobacter aerogenes (ATCC# 13048); experiment: as above; format: cell-based; conditions: Luria Bertani broth, peptide 1, 10, 50, 100 μg/mL, 37 °C, 24 h, absorbance 600 nm; MIC interpolated at 0% bacterial growth; average of three independent experiments
Experimental: as §1, §2, §3

[6] = test system: Pseudomonas aeruginosa and Proteus mirabilis; conditions: printed as 100 or more than 200; ref Dai [21]; cited from earlier work
Experimental: (§4) Studies of bacterial inhibition carried out by Dai with IsCT1 and IsCT2 natural peptides show a range of MICs of 1 to 5 μg/mL for different strains of S. aureus and 10 to 25 μg/mL for two strains of Bacillus. For Gram-negative bacteria, they show 5 to 120 μg/mL for two strains of E. coli but 100 or more than 200 μg/mL for other strains of Gram-negative bacteria (Pseudomonas aeruginosa and Proteus mirabilis). Bacterial inhibition studies by Kim with IsCT show MICs of 6 μg/mL for E. coli and 3 μg/mL for S. aureus and, for the IsCT1K7 analog, the reported concentrations are 3 and 1.5 μg/mL ...

S. aureus = conditions: ref Kim [16]; cited from earlier work
Experimental: as §4

E. coli = conditions: ref Kim [16]; cited from earlier work
Experimental: as §4

ILGKLWEGLKSLF-NH2 [IsCT1L1]
Hemolytic activity (in words) (human erythrocytes): highest hemolytic activity; also recorded: toxicity similar to the wild type peptides
MIC B. cereus [1]: >100 µg/mL
MIC S. aureus [2]: 50 µg/mL
MIC E. coli [3]: 50 µg/mL
MIC S. typhimurium [4]: 100 µg/mL
MIC E. aerogenes [5]: >100 µg/mL

ILGKIWEGIESLF-NH2 [IsCT1E7]
Hemolytic activity (in words) (human erythrocytes): no toxicity at all; also recorded: do not have any apparent citotoxicity; also recorded: no apparent cytotoxicity
MIC B. cereus [1]: >100 µg/mL
MIC S. aureus [2]: >100 µg/mL
MIC E. coli [3]: >100 µg/mL
MIC S. typhimurium [4]: >100 µg/mL
MIC E. aerogenes [5]: >100 µg/mL

ILGKIWKGIKSLF-NH2 [IsCT1K7]
Hemolytic activity (in words) (human erythrocytes): highest hemolytic activity
MIC B. cereus [1]: >100 µg/mL
MIC S. aureus [2]: 100 µg/mL
MIC E. coli [3]: >100 µg/mL
MIC S. typhimurium [4]: 100 µg/mL
MIC E. aerogenes [5]: >100 µg/mL

IFGAIWNGIKSLF-NH2 [IsCT2, reference compound]
Hemolytic activity (in words) (human erythrocytes): highest hemolytic activity
MIC B. cereus [1]: 100 µg/mL
MIC S. aureus [2]: 50 µg/mL
MIC E. coli [3]: 50 µg/mL
MIC S. typhimurium [4]: 100 µg/mL
MIC E. aerogenes [5]: >100 µg/mL
MIC, other Gram-negative strains (Pseudomonas aeruginosa and Proteus mirabilis) [6]: ≥ 100 µg/mL

ILGAAWNGAKSLF-NH2 [IsCT2A1, alanine substituted (positions 5 and 9) analog of IsCT2]
MIC B. cereus [1]: >100 µg/mL
MIC S. aureus [2]: >100 µg/mL
MIC E. coli [3]: >100 µg/mL
MIC S. typhimurium [4]: >100 µg/mL
MIC E. aerogenes [5]: >100 µg/mL

ILGAVWNGVKSLF-NH2 [IsCT2V1, valine substituted (positions 5 and 9) analog of IsCT2]
MIC B. cereus [1]: >100 µg/mL
MIC S. aureus [2]: >100 µg/mL
MIC E. coli [3]: >100 µg/mL
MIC S. typhimurium [4]: >100 µg/mL
MIC E. aerogenes [5]: >100 µg/mL

ILGKVWEGVKSLF-NH2 [IsCT1V1]
MIC B. cereus [1]: >100 µg/mL
MIC S. aureus [2]: >100 µg/mL
MIC E. coli [3]: >100 µg/mL
MIC S. typhimurium [4]: >100 µg/mL
MIC E. aerogenes [5]: >100 µg/mL

ILGKIWEGIKSLF-NH2 [IsCT1, reference compound]
Hemolytic activity (in words) (human erythrocytes): highest hemolytic activity
MIC B. cereus [1]: >100 µg/mL
concentration showing significant bacteria growth inhibition, Bacillus cereus ([1]; inhibition at low concentration, then plateau or slight increase of growth at higher concentrations (Figure S2)): lower than 10 μg/mL
MIC S. aureus [2]: 50 µg/mL
MIC E. coli [3]: 50 µg/mL
MIC S. typhimurium [4]: 100 µg/mL
MIC E. aerogenes [5]: >100 µg/mL
MIC S. aureus (S. aureus): 3 µg/mL
MIC, other Gram-negative strains (Pseudomonas aeruginosa and Proteus mirabilis) [6]: ≥ 100 µg/mL
MIC E. coli (E. coli): 6 µg/mL

ILGKAWEGAKSLF-NH2 [IsCT1A1]
MIC B. cereus [1]: >100 µg/mL
MIC S. aureus [2]: >100 µg/mL
MIC E. coli [3]: >100 µg/mL
MIC S. typhimurium [4]: >100 µg/mL
MIC E. aerogenes [5]: >100 µg/mL
